# Experiments:
# Format in all cases: in vivo
# [1] = system: Septoria tritici; test: Test C: wheat leaf blotch, preventive spray on wheat seedlings, visual disease rating; conditions: for pest or weed control at 40 ppm: Zymoseptoria tritici, 504 h
# Source text: (§1) General protocol for preparing test suspensions for Tests A-H: The test compounds were first dissolved in acetone in an amount equal to 3% of the final volume and then suspended at the desired concentration (in ppm) in acetone and purified water (50/50 mix) containing 250 ppm of the surfactant Trem® 014 (polyhydric alcohol esters). The resulting test suspensions were then used in tests A-H. Spraying a 200 ppm test suspension to the point of run-off on the test plants was the equivalent of a rate of 500 g/ha.
# The test suspension was sprayed to the point of run-off on wheat seedlings. The following day the seedlings were inoculated with a spore suspension of Septoria tritici (the causal agent of wheat leaf blotch) and incubated in a saturated atmosphere at 20° C. for 48 h, and moved to a growth chamber at 20° C. for 19 additional days, after which time disease ratings were visually made.
# (§2) Results for Tests A-H are given in Table A. In the table, a rating of 100 indicates 100% disease control and a rating of 0 indicates no disease control (relative to the controls). A dash (-) indicates no test results. All results are for compounds tested at 200 ppm except where the compound number is followed by “*” which indicates the compound was tested at 40 ppm.
# [2] = system: Septoria nodorum; test: Test D: wheat glume blotch, preventive spray on wheat seedlings, visual disease rating; conditions: for pest or weed control at 40 ppm: Parastagonospora nodorum, 216 h
# Source text: as §1
# The test suspension was sprayed to the point of run-off on wheat seedlings. The following day the seedlings were inoculated with a spore suspension of Septoria nodorum (the causal agent of wheat glume blotch) and incubated in a saturated atmosphere at 20° C. for 48 h, and then moved to a growth chamber at 20° C. for 7 days, after which time disease ratings were visually made.
# as §2
# [3] = system: Puccinia recondite f. sp. tritici; test: Test B: wheat leaf rust, preventive spray on wheat seedlings, visual disease rating; conditions: for pest or weed control at 40 ppm: 192 h
# Source text: as §1
# The test suspension was sprayed to the point of run-off on wheat seedlings. The following day the seedlings were inoculated with a spore suspension of Puccinia recondite f. sp. tritici (the causal agent of wheat leaf rust) and incubated in a saturated atmosphere at 20° C. for 24 h, and then moved to a growth chamber at 20° C. for 7 days, after which time disease ratings were visually made.
# as §2
# [4] = system: Alternaria solani; test: Test E: tomato early blight, preventive spray on tomato seedlings, visual disease rating; conditions: for pest or weed control at 40 ppm: Alternaria solani, 168 h
# Source text: as §1
# The test suspension was sprayed to the point of run-off on tomato seedlings. The following day the seedlings were inoculated with a spore suspension of Alternaria solani (the causal agent of tomato early blight) and incubated in a saturated atmosphere at 27° C. for 48 h, and then moved to a growth chamber at 20° C. for 5 days, after which time disease ratings were visually made.
# as §2
# [5] = system: Botrytis cinerea; test: Test F: tomato botrytis, preventive spray on tomato seedlings, visual disease rating; conditions: for pest or weed control at 40 ppm: Botrytis cinerea, 120 h
# Source text: as §1
# The test suspension was sprayed to the point of run-off on tomato seedlings. The following day the seedlings were inoculated with a spore suspension of Botrytis cinerea (the causal agent of tomato botrytis) and incubated in saturated atmosphere at 20° C. for 48 h, and then moved to a growth chamber at 24° C. for 3 additional days, after which time disease ratings were visually made.
# as §2
# [6] = system: Erysiphe graminis f. sp. tritici; test: Test A: wheat powdery mildew, preventive spray on wheat seedlings, visual disease rating; conditions: for pest or weed control at 40 ppm: Blumeria graminis, 192 h
# Source text: as §1
# The test suspension was sprayed to the point of run-off on wheat seedlings. The following day the seedlings were inoculated with a spore dust of Erysiphe graminis f. sp. tritici (the causal agent of wheat powdery mildew) and incubated in a growth chamber at 20° C. for 8 days, after which time disease ratings were visually made.
# as §2
# [7] = 40 ppm (compound number followed by *)
# [8] = 200 ppm, 100 = 100% disease control, 0 = no control
Compound,"Test C rating (% disease control) [1, 7] [%]","Test D rating (% disease control) [2, 7] [%]","Test B rating (% disease control) [3, 7] [%]","Test E rating (% disease control) [4, 7] [%]","Test F rating (% disease control) [5, 7] [%]","Test A rating (% disease control) [6, 7] [%]","Test C rating (% disease control) [1, 8] [%]","Test D rating (% disease control) [2, 8] [%]","Test B rating (% disease control) [3, 8] [%]","Test E rating (% disease control) [4, 8] [%]","Test F rating (% disease control) [5, 8] [%]","Test A rating (% disease control) [6, 8] [%]",other results
"COc1cc(OC)cc(-c2c(Br)cnc(C)c2-c2c(F)cc(F)cc2F)c1 [Compound 122, 5-bromo-4-(3,5-dimethoxyphenyl)-2-methyl-3-(2,4,6-trifluorophenyl)pyridine]",–,–,–,–,–,–,–,–,–,–,–,–,"pest or weed control at 40 ppm [1, 7]: 99%; pest or weed control at 40 ppm [2, 7]: 0%; pest or weed control at 40 ppm [3, 7]: 99%; pest or weed control at 40 ppm [4, 7]: 0%; pest or weed control at 40 ppm [5, 7]: 100%; pest or weed control at 40 ppm [6, 7]: 98%"
COc1cc(OC)c(Cl)c(-c2c(-c3ccccc3F)cnc(C)c2-c2c(F)cc(F)cc2F)c1Cl [Compound 136],40,0,74,0,48,0,–,–,–,–,–,–,–
COc1cc(OC)cc(-c2c(-c3cccnc3)cnc(C)c2-c2c(F)cc(F)cc2F)c1 [Compound 128],100,90,99,94,99,81,–,–,–,–,–,–,–
COc1cc(OC)cc(-c2c(-c3c(F)cccc3F)cnc(Cl)c2-c2c(F)cccc2F)c1 [Compound 76],0,0,28,0,0,0,–,–,–,–,–,–,–
COc1cc(OC)cc(-c2c(C(C)CO)cnc(C)c2-c2c(F)cc(OC)cc2F)c1 (stereo not drawn) [Compound 92],96,82,99,100,94,76,–,–,–,–,–,–,–
Cc1ncc(-c2ccccc2F)c(-c2cc(O)cc(O)c2)c1-c1ccc(F)cc1 [Compound 100],–,–,–,–,–,–,76,0,89,0,100,76,–
COc1cc(OC)cc(-c2c(-c3ccc(F)cc3)cnc(C)c2-c2ccc(F)cc2F)c1 [Compound 95],–,–,–,–,–,–,96,0,99,73,87,93,–
"COc1cc(OC)c(Cl)c(-c2c(-c3ccccc3F)cnc(C)c2-c2c(F)cc(F)cc2F)c1 [Compound 135, 4-(2-chloro-3,5-dimethoxyphenyl)-5-(2-fluorophenyl)-2-methyl-3-(2,4,6-trifluorophenyl)pyridine]",–,–,–,–,–,–,–,–,–,–,–,–,"pest or weed control at 40 ppm [1, 7]: 99%; pest or weed control at 40 ppm [2, 7]: 96%; pest or weed control at 40 ppm [3, 7]: 100%; pest or weed control at 40 ppm [4, 7]: 88%; pest or weed control at 40 ppm [5, 7]: 100%; pest or weed control at 40 ppm [6, 7]: 98%"
COc1cc(OC)cc(-c2c(CN3CCCCC3)cnc(C)c2-c2c(F)cc(F)cc2F)c1 [Compound 111],–,–,–,–,–,–,91,0,97,0,99,93,–
COc1ccc(-c2c(C)ncc(C(C)CO)c2-c2cc(OC)cc(OC)c2)cc1 (stereo not drawn) [Compound 82],–,–,–,–,–,–,95,69,98,98,98,97,–
COc1cc(OC)cc(-c2c(C(C)O)cnc(C)c2-c2c(F)cc(F)cc2F)c1 (stereo not drawn) [Compound 107],–,–,–,–,–,–,98,98,100,100,99,100,–
COc1cc(OC)cc(-c2c(-c3cnc(OC)nc3OC)cnc(C)c2-c2c(F)cc(F)cc2F)c1 [Compound 131],0,0,9,0,80,0,–,–,–,–,–,–,–
COc1cc(OC)cc(-c2c(-c3ccccc3)cnc(C)c2-c2ccccc2F)c1 [Compound 86],93,0,98,31,92,96,–,–,–,–,–,–,–
COc1cc(OC)cc(-c2c(Cn3cc(C#N)cn3)cnc(C)c2-c2c(F)cc(F)cc2F)c1 [Compound 123],53,0,0,0,69,0,–,–,–,–,–,–,–
COc1cc(OC)cc(-c2c(C(C)=O)cnc(C)c2-c2c(F)ccc(F)c2F)c1 [Compound 68],–,–,–,–,–,–,88,0,99,99,99,100,–
COc1cc(OC)cc(-c2c(Cn3cncn3)cnc(C)c2-c2c(F)cc(F)cc2F)c1 [Compound 104],–,–,–,–,–,–,98,99,100,100,99,100,–
CCC(C)c1cnc(C)c(-c2c(F)cc(F)cc2F)c1-c1cc(OC)cc(OC)c1 (stereo not drawn) [Compound 73],94,0,100,91,99,100,–,–,–,–,–,–,–
COc1cc(OC)cc(-c2c(C3CCOCC3)cnc(C)c2-c2ccc(F)cc2)c1 [Compound 59],–,–,–,–,–,–,97,92,100,100,100,79,–

# Reference: patent publication US20110092544A1, “FUNGICIDAL PYRIDINES” (E.I. DU PONT DE nemours and company, priority 2008, published 2011)
